In patent US20220289903A1, “POLYMER AND COMPOSITION FROM RENEWABLE SOURCE” (ÅBO AKADEMI UNIVERSITY, priority 2019, published 2022):

Experiments:
MDAMB-231 cells = test: WST-1 cell viability assay, cancer cells; settings: 25-150 μg/mL DOX, 24 hours and 72 hours
[1] = system: Murine breast cancer (4T1) cells; test: In vivo study in tumor-bearing mice; settings: equivalent doxorubicin dose 7.5 mg/kg i.v. on alternate day, 4T1 tumor Balb/c mice
Experimental: All animal experiments were done with the approval of Institutional Animal Ethical Committee (IAEC), National Institute of Immunology, New Delhi. Murine breast cancer (4T1) cells ([…]) in 200 μL of FBS were injected subcutaneously into the right flanks of 5-week-old female Balb/c mice. Mice were randomized into four groups (6 mice in each group) after they developed a tumor of ˜75 mm^3. […] Tumor measurements were made every alternate day using a digital caliper, and tumor volume was calculated using the formula L×B2/2 where L and B are the length and breadth of the tumor. Each mouse was weighed before dosing and weight loss with respect to dosing. The survival study was continued until the last mouse was found live in all the groups. […] FIG. 9B represents an example of the weight change (%) of Balb/c mice vs injection day when treated as above.

## COc1cccc2c1C(=O)c1c(O)c3c(c(O)c1C2=O)C[C@@](O)(C(=O)CO)C[C@@H]3O[C@H]1C[C@H](N)[C@H](O)[C@H](C)O1.Cl [DOX, doxorubicin HCl]
MDAMB-231 cells
  percentage proliferation (cytotoxicity): equally cytotoxic regardless the cell line used
[1]
  number of doses after which all animals of the group died: 4 doses
